Data as given in ChEMBL document CHEMBL1201862, “PubChem BioAssay data set” (2004).
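Where inhibition never reached the appropriate level, the endpoint shown equals the highest concentration tested. Otherwise, values were interpolated linearly from a five-concentration, 48-hour dose response in 96-well plates. GI50 is the concentration that inhibits growth by half.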 Calls of active or inactive are those of the source. Cut-off read from the data, not from the text of the source: active = GI50 up to about 1.1 µM and inactive = higher.

Legend:
Experiment in all cases: NCI anticancer screen, dose series, 48 h
[1] = tested on: ACHN
[2] = tested on: CAKI-1
[3] = tested on: COLO 205
[4] = tested on: DU-145
[5] = tested on: HOP-62
[6] = tested on: Hs-578T
[7] = tested on: K562
[8] = tested on: MCF7
[9] = tested on: MDA-MB-231
[10] = tested on: MDA-MB-435
[11] = tested on: MDA-N
[12] = tested on: OVCAR-5
[13] = tested on: PC-3
[14] = tested on: T47D
[15] = tested on: TK-10
[16] = tested on: 786-0
[17] = tested on: A498

Measured: GI50

COc1ccc(C(=C2C=CC=C2)c2ccc(OC)cc2)cc1
inactive: [1] 36.7 µM | [2] 23 µM | [3] 23.7 µM | [4] 40.7 µM | [5] 39.9 µM | [6] 33.6 µM | [7] 22.2 µM | [8] 13.1 µM | [9] 16.1 µM | [10] 35.8 µM | [11] 37 µM | [12] 32.3 µM | [13] 47.5 µM | [14] 24.2 µM | [15] 50.4 µM

COc1ccc(-c2c3c(nc4[nH]c(=S)[nH]c(=S)c24)CCCC3)cc1OC
inactive: [1] 51.1 µM | [2] 34.7 µM | [3] 45 µM | [4] 35.8 µM | [5] 19.6 µM | [6] 13.3 µM | [7] 30 µM | [8] 29.6 µM | [9] 18 µM | [10] 34.5 µM | [11] 34.3 µM | [12] 28.8 µM | [13] 24 µM | [14] 25.9 µM | [15] 17.6 µM

CC(=N/NC(=S)Nc1c(C)n(C)n(-c2ccccc2)c1=O)/C(C)=N\NC(=S)Nc1c(C)n(C)n(-c2ccccc2)c1=O
inactive: [16] > 100 µM | [17] > 100 µM | [1] > 100 µM | [2] > 100 µM | [3] > 100 µM | [4] > 100 µM | [5] > 100 µM | [6] > 100 µM | [9] > 100 µM | [10] > 100 µM | [12] > 100 µM | [13] > 100 µM | [14] > 100 µM | [15] > 100 µM

CN(C)/N=C(/CC(O)(C(F)(F)F)C(F)(F)F)c1ccc([N+](=O)[O-])cc1
inactive: [16] > 100 µM | [17] > 100 µM | [1] > 100 µM | [2] > 100 µM | [3] > 100 µM | [4] > 100 µM | [5] > 100 µM | [6] > 100 µM | [7] > 100 µM | [9] > 100 µM | [10] > 100 µM | [11] > 100 µM | [12] > 100 µM | [13] > 100 µM | [14] > 100 µM

COP(=O)(OC)C(Cc1c[nH]c2ccccc12)NC(=O)OCc1ccccc1 (stereo unspecified)
inactive: [17] > 100 µM | [1] > 100 µM | [2] > 100 µM | [3] > 100 µM | [4] > 100 µM | [5] > 100 µM | [6] > 100 µM | [7] > 100 µM | [8] > 100 µM | [9] > 100 µM | [10] > 100 µM | [11] > 100 µM | [12] > 100 µM | [13] > 100 µM | [14] 71.3 µM | [15] > 100 µM

C=CC(OC(=O)C(C)C)c1ccc(OC(=O)C(C)C)cc1 (stereo unspecified)
inactive: [16] 4.69 µM | [17] 17.6 µM | [1] 14.6 µM | [2] 2.56 µM | [3] 8.87 µM | [4] 32.9 µM | [5] 9.95 µM | [6] 35.7 µM | [7] 7.96 µM | [8] 3.3 µM | [9] 16.4 µM | [10] 13.6 µM | [11] 12.5 µM | [12] 6.5 µM | [13] 8.97 µM | [14] 21.6 µM

c1ccc(P2c3ccccc3Nc3ccccc32)cc1
inactive: [16] > 100 µM | [17] 27.1 µM | [1] 86.5 µM | [2] 23.5 µM | [3] 32.7 µM | [4] 78 µM | [5] 64.9 µM | [7] 44.1 µM | [8] 72.1 µM | [9] 35.3 µM | [10] > 100 µM | [11] 91 µM | [12] > 100 µM | [13] 30 µM | [14] 55.2 µM | [15] > 100 µM

Cc1ccc(C(=O)N/N=C(\N=N\c2cccc([N+](=O)[O-])c2)c2ccc(N(C)C)cc2)cc1
inactive: [16] > 100 µM | [2] 68.1 µM | [3] > 100 µM | [4] 16.6 µM | [6] > 100 µM | [7] 30.3 µM | [8] > 100 µM | [9] > 100 µM | [10] 24.9 µM | [11] 20.7 µM | [12] > 100 µM | [13] > 100 µM | [15] > 100 µM

CCOC(=O)C1=C(C)N(c2ccc(Cl)cc2)C2(O)C=CC(Nc3ccc(Cl)cc3)=C3C(=O)N(c4ccccc4)C(=O)C312 (stereo unspecified)
inactive: [17] 1.83 µM | [1] 6.75 µM | [2] 1.87 µM | [3] 2.44 µM | [4] 4.27 µM | [5] 1.63 µM | [6] 5.51 µM | [7] 3.23 µM | [8] 2.05 µM | [9] 4.25 µM | [10] 1.78 µM | [12] 3.96 µM | [13] 2.94 µM | [14] 3.84 µM | [15] 13.6 µM

CC1=Nc2nc(Cl)cn2C(=O)C1(Cl)Cl
inactive: [17] > 10 µM | [1] > 10 µM | [2] > 10 µM | [3] > 10 µM | [4] > 10 µM | [5] > 10 µM | [6] > 10 µM | [7] > 10 µM | [8] > 10 µM | [9] > 10 µM | [10] > 10 µM | [11] > 10 µM | [12] > 10 µM | [13] > 10 µM | [14] > 10 µM | [15] > 10 µM

C/C(N)=N/OCc1nc(C)no1
inactive: [16] > 100 µM | [1] > 100 µM | [2] > 100 µM | [3] > 100 µM | [4] > 100 µM | [5] > 100 µM | [6] > 100 µM | [7] > 100 µM | [8] > 100 µM | [9] > 100 µM | [10] > 100 µM | [11] > 100 µM | [13] > 100 µM | [14] > 100 µM | [15] > 100 µM

COc1ccc([C@@H]2ON(C)[C@H]3CN(C)C(=O)[C@@H]23)cc1
inactive: [1] > 100 µM | [2] > 100 µM | [3] > 100 µM | [4] > 100 µM | [5] > 100 µM | [6] > 100 µM | [7] > 100 µM | [8] > 100 µM | [9] > 100 µM | [11] > 100 µM | [12] > 100 µM | [13] > 100 µM | [14] > 100 µM | [15] > 100 µM

CC(=O)NC(CCC(=O)C=[N+]=[N-])C(=O)O (stereo unspecified)
inactive: [16] > 100 µM | [17] > 100 µM | [1] > 100 µM | [3] > 100 µM | [4] > 100 µM | [5] > 100 µM | [6] > 100 µM | [7] > 100 µM | [8] > 100 µM | [9] > 100 µM | [10] > 100 µM | [11] > 100 µM | [12] > 100 µM | [13] > 100 µM | [14] > 100 µM | [15] > 100 µM
